Tests used:
Assay in all cases: DNA Methylation Assay
Conditions in all cases: pH 7.5
[1] = molecular target: T1, DNA (cytosine-5)-methyltransferase 1 [351-1600] (Homo sapiens, UniProt P26358)
T1 construct: 351-1600
Protocol: (§1) Assays (0.1 ml) were conducted in 96-well black half-area plates in either a Wallac VICTOR2 or Biotek Synergy Neo plate reader at 37 °C in 10 mM Tris, pH 7.5, 100 mM potassium glutamate, 1 mM MgCl2, 1 mM DTT, 0.1 mg/ml BSA, and 5% glycerol. […] Data were fitted using Prism (GraphPad Software, Inc).

[2] = molecular target: T2, DNA (cytosine-5)-methyltransferase 3A [590-912] (Homo sapiens, UniProt Q9Y6K1)
T2 construct: 590-912
Protocol: as §1

[3] = molecular target: Orphan methyltransferase M.SssI (Spiroplasma monobiae (strain ATCC 33825 / MQ-1), UniProt P15840)
Protocol: as §1

T2 sequence (Q9Y6K1 590-912): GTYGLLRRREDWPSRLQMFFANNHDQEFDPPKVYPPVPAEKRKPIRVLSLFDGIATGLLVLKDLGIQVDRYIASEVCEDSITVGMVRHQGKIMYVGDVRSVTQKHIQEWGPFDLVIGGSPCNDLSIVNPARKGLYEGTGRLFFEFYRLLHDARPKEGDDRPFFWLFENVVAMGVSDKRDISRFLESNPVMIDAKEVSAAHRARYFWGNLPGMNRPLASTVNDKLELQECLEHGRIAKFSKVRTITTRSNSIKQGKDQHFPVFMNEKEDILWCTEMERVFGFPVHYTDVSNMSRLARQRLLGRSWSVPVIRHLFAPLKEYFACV
Chain of Orphan methyltransferase M.SssI (P15840 whole entry): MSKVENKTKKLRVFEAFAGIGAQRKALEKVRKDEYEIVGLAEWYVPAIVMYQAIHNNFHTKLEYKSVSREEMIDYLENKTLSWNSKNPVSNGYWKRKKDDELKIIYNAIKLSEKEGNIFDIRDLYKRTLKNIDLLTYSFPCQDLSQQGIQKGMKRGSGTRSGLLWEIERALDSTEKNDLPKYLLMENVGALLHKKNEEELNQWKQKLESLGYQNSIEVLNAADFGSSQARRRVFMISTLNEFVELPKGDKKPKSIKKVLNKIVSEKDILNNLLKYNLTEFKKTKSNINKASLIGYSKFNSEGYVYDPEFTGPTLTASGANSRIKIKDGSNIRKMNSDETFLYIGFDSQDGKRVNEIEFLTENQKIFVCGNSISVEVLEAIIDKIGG
T1 sequence (P26358 351-1600): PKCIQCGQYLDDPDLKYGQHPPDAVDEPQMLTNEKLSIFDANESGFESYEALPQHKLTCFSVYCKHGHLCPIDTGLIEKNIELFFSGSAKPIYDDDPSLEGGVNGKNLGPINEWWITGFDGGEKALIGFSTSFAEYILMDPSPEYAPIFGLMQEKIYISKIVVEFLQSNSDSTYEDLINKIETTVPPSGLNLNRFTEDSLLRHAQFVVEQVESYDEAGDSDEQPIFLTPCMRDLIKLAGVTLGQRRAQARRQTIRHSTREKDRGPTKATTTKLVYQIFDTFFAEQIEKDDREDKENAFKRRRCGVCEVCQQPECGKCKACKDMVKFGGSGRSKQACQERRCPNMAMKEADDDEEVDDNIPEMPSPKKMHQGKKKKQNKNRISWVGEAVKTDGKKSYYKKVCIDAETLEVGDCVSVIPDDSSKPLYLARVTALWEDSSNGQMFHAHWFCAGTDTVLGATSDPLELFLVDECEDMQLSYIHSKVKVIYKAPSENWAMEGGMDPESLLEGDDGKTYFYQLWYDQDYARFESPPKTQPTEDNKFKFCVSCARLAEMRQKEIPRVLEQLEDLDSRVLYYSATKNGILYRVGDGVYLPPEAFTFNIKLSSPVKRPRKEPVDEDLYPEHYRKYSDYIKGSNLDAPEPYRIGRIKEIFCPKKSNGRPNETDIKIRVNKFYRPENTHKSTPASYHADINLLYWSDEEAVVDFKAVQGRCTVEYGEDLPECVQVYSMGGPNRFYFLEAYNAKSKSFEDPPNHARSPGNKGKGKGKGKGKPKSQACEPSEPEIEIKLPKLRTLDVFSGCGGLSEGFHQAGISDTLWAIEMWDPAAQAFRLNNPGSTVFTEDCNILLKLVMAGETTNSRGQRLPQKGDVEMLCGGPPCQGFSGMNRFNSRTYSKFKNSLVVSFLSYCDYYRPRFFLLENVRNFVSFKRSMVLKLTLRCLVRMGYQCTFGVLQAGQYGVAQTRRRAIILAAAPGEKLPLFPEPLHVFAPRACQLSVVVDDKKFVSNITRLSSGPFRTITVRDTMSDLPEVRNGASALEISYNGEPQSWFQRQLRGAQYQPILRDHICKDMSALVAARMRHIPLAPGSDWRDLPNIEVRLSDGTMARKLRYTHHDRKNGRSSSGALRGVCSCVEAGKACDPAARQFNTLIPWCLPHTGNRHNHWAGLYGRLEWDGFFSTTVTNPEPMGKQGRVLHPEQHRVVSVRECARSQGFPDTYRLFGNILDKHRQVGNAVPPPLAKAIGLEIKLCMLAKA

CC(=O)NCCc1ccc(O)c(-c2c(O)c(O)c3c(c2O)C(=O)c2c(cc(O)c(C(=O)O)c2C(=O)O)C3=O)c1
IC50 [1]: 19.1 µM | IC50 [2]: 50.5 µM | IC50 [3]: 53.6 µM
